Source: ChEMBL document CHEMBL4619754, “Discovery of novel, potent, and orally bioavailable pyrido[2,3-d][1]benzazepin-6-one antagonists for parathyroid hormone receptor 1” (Bioorg Med Chem, 2020)
≈ marks a conversion by molar mass, not a printed value.

Experiments:
[1] = Solubility of the compound in JP1 fluid at pH 1.2; assay type: physicochemical
[2] = Solubility of the compound in JP2 buffer at pH 6.8; assay type: physicochemical
[3] = Metabolic stability in rat liver microsomes assessed as parent compound remaining at 1 uM in presence of NADPH generating system measured after 20 mins by LC-MS/MS analysis; assay type: ADME, Microsome; settings: read-out: Stability
[4] = biological target: T1, Parathyroid hormone/parathyroid hormone-related peptide receptor (Homo sapiens, UniProt Q03431); assay: Antagonist activity at PTHR1 (unknown origin) expressed in CHOK1 cells co-expressing Gs/Gq assessed as reduction in human PTH (1 to 34 residues)-induced cAMP level incubated for 30 mins; assay type: functional, cell-based, CHO-K1
T1 sequence (Q03431 whole entry): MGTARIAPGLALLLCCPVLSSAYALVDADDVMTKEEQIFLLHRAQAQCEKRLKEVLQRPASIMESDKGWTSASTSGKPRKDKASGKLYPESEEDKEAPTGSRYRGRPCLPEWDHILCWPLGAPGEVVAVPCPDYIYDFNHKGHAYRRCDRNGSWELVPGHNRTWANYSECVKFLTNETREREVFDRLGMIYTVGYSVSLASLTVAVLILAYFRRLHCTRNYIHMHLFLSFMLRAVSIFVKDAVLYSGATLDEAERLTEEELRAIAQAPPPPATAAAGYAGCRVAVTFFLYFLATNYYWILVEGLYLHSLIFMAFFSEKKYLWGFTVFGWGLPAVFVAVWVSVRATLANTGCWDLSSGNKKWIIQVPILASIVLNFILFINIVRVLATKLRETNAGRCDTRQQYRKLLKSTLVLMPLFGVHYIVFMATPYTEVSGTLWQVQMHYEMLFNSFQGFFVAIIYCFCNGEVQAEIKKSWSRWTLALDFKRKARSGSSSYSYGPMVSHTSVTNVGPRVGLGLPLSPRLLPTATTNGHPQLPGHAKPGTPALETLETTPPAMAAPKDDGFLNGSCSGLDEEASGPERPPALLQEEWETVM

[5] = biological target: CYP2D6 (Homo sapiens, UniProt P10635); assay: Inhibition of CYP2D6 (unknown origin) at 10 uM relative to control; assay type: ADME
CYP2D6, sequence (P10635 whole entry): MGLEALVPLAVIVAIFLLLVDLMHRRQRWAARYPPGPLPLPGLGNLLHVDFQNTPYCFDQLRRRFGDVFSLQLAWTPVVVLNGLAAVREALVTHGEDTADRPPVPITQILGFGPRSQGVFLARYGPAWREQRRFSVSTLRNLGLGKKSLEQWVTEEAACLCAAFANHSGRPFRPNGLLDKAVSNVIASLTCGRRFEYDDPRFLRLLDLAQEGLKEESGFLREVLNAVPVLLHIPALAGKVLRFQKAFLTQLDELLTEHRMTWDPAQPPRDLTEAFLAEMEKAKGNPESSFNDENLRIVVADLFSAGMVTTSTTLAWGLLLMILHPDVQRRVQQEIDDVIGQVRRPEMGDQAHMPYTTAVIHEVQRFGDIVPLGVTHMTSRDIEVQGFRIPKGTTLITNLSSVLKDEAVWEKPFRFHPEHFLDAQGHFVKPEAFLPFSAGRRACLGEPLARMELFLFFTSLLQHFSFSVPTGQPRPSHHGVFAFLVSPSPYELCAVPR

[6] = 1-Octanol/PBS buffer distribution coefficient, log D of the compound at pH 7.4; assay type: physicochemical
[7] = biological target: CYP3A4 (Homo sapiens, UniProt P08684); assay: Inhibition of CYP3A4 (unknown origin) at 10 uM relative to control; assay type: ADME
CYP3A4, sequence (P08684 whole entry): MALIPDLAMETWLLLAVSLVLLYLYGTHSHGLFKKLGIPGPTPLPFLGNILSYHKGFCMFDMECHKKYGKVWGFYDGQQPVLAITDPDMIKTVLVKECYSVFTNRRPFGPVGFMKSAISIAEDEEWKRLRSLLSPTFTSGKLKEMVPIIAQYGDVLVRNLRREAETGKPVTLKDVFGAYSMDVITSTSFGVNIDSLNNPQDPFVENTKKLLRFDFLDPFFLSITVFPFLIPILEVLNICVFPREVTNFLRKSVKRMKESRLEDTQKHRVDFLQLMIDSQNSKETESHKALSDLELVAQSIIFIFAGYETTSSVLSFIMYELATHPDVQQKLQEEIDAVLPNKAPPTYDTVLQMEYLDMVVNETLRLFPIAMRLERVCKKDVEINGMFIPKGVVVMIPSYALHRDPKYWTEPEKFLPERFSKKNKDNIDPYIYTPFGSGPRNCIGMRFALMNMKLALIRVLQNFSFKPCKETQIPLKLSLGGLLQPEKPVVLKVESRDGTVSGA

[8] = AUClast in Sprague-Dawley rat at 5 mg/kg, po by LC-MS/MS analysis; assay type: ADME, organism-based; design: dose 5 mg/kg, time 0 - last, route oral; settings: in vivo
[9] = Oral bioavailability in Sprague-Dawley rat at 10 mg/kg by LC-MS/MS analysis; assay type: ADME, organism-based; settings: in vivo
[10] = biological target: T2, CYP2C8 (Homo sapiens, UniProt P10632); assay: Inhibition of CYP2C8 (unknown origin) at 10 uM relative to control; assay type: ADME
T2 sequence (P10632 whole entry): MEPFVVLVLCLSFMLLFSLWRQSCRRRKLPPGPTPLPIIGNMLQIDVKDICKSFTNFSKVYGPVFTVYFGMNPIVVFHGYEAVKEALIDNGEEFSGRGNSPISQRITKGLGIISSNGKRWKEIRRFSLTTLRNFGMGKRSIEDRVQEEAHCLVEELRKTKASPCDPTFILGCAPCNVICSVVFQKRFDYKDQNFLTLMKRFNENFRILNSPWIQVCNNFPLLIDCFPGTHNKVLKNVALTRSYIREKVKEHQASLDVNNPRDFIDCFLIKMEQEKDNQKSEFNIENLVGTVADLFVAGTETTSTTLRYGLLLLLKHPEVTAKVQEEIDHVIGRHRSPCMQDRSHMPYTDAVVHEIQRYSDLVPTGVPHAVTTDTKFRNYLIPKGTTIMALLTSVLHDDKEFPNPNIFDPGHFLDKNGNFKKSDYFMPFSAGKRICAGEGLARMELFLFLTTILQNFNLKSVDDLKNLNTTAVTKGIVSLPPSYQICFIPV

[11] = biological target: CYP2C9 (Homo sapiens, UniProt P11712); assay: Inhibition of CYP2C9 (unknown origin) at 10 uM relative to control; assay type: ADME
CYP2C9, sequence (P11712 whole entry): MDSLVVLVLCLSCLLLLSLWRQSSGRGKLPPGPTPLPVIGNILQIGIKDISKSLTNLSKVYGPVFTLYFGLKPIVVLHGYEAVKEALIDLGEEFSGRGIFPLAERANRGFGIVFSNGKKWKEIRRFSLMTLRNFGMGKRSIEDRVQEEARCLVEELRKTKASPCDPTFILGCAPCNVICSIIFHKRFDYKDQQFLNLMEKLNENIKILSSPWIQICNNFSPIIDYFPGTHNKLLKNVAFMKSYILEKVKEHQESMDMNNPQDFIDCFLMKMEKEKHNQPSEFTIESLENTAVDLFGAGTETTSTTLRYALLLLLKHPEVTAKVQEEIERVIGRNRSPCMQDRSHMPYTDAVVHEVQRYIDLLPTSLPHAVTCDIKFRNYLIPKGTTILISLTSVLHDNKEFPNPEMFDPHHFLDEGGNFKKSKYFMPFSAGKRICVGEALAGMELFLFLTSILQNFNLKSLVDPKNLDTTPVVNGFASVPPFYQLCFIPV

[12] = Plasma clearance in Sprague-Dawley rat at 1 mg/kg, iv by LC-MS/MS analysis; assay type: ADME, organism-based
[13] = biological target: CYP2C19 (Homo sapiens, UniProt P33261); assay: Inhibition of CYP2C19 (unknown origin) at 10 uM relative to control; assay type: ADME
CYP2C19, sequence (P33261 whole entry): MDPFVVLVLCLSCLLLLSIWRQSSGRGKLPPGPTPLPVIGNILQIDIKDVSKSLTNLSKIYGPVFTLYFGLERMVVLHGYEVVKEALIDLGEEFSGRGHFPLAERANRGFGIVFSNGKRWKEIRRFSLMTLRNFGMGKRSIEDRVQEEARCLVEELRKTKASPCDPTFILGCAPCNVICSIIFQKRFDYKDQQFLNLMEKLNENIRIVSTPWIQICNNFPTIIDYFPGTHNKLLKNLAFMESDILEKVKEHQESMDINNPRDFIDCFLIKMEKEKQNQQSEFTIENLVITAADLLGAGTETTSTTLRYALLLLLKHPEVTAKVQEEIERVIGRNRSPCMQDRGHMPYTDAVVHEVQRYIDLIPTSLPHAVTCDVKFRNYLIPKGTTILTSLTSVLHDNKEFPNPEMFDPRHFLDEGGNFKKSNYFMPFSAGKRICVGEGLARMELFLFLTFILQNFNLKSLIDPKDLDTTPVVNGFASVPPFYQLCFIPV

[14] = Elimination half life in Sprague-Dawley rat at 5 mg/kg, po by LC-MS/MS analysis; assay type: ADME, organism-based; settings: in vivo, read-out: BBB (converted)
[15] = biological target: T3, CYP1A2 (Homo sapiens, UniProt P05177); assay: Inhibition of CYP1A2 (unknown origin) at 10 uM relative to control; assay type: ADME
T3 sequence (P05177 whole entry): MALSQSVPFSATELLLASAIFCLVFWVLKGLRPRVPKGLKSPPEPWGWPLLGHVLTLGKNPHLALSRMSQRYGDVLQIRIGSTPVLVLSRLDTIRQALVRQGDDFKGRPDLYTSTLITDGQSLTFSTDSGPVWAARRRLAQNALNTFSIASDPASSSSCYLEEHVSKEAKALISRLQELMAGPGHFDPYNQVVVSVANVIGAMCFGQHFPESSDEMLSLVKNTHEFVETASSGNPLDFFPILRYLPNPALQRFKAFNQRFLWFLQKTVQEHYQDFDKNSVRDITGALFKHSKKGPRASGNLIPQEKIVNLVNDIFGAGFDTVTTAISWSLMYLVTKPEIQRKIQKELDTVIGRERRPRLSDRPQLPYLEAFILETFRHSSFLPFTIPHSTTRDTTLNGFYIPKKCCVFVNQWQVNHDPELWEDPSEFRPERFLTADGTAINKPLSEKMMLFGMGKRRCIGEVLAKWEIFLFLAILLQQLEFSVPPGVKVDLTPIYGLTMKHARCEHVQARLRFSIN

[16] = Volume of distribution at steady state in Sprague-Dawley rat at 1 mg/kg, iv by LC-MS/MS analysis; assay type: ADME, organism-based; settings: in vivo, read-out: Vdss
[17] = Drug degradation in HCL/CH2Cl2 by TLC analysis; assay type: physicochemical; settings: read-out: Drug degradation

| Compound | solubility [1] [µg/mL] | solubility [2] [µg/mL] | remaining at 20 min, 1 µM [3] [%] | IC50 [4] [µM] | also measured |
| --- | --- | --- | --- | --- | --- |
| Cc1cnc2c(c1)-c1ccc(Cl)cc1N(c1ccc(NCCNC3CCOCC3)cc1)C(=O)C2(C)C | > 980 | 510 (≈ 1010 µM) | 62 |  |  |
| CC1(C)C=C(C2CCCCC2)c2ccc(Cl)cc2N(c2ccc(NCCNC3CCOCC3)cc2)C1=O |  |  | 58 | 0.97 |  |
| CC1(C)C(=O)N(c2ccc(NCCNC3CCOCC3)cc2)c2cc(C#N)ccc2-c2cc(Cl)cnc21 | 990 (≈ 1920 µM) | 720 (≈ 1400 µM) | 34 |  |  |
| CC(C)N1N=C(C2CCCCC2)c2ccc(Cl)cc2N(c2ccc(NCCNC3CCOCC3)cn2)C1=O |  |  |  | 4.37 |  |
| CC1(C)C(=O)N(c2ccc(NCCNC3CCOCC3)cc2)c2cc(Cl)ccc2-c2ccccc21 | 83 (≈ 169 µM) | 9.1 (≈ 18.6 µM) | 21 | 3.2 |  |
| CC1(C)C(=O)N(c2ccc(NCCNC3CCOCC3)cc2)c2cc(Cl)ccc2-c2cc(Cl)ccc21 | 36 (≈ 68.6 µM) | 4.7 (≈ 8.96 µM) | 75 |  |  |
| CC1(C)C=C(C2CCCCC2)c2ccc(C#N)cc2N(c2ccc(NCCNC3CCOCC3)cc2)C1=O |  |  | 97 | 8.8 |  |
| CC1(C)N=C(C2CCCCC2)c2ccc(C#N)cc2N(c2ccc(NCCNC3CCOCC3)cc2)C1=O |  |  | 28 |  | degraded [17]: 100% |

The next lines start with results.

| solubility [1] [µg/mL] | solubility [2] [µg/mL] | remaining at 20 min, 1 µM [3] [%] | IC50 [4] [µM] | Compound | also measured |
| --- | --- | --- | --- | --- | --- |
| 960 (≈ 1890 µM) | 380 (≈ 747 µM) | 42 |  | CC1(C)C(=O)N(c2ccc(NCCNC3CCOCC3)cc2)c2cc(F)ccc2-c2cc(Cl)cnc21 |  |
| 920 (≈ 1810 µM) | 470 (≈ 923 µM) | 19 |  | CC1(C)C(=O)N(c2ccc(NCCNC3CCOCC3)cc2)c2cc(Cl)ccc2-c2cc(F)cnc21 |  |
| 250 (≈ 480 µM) | 3.8 (≈ 7.29 µM) | 59 |  | COc1ccc2c(c1)N(c1ccc(NCCNC3CCOCC3)cc1)C(=O)C(C)(C)c1ncc(Cl)cc1-2 |  |
| 570 (≈ 1080 µM) | 77 (≈ 147 µM) | 65 |  | CC1(C)C(=O)N(c2ccc(NCCNC3CCOCC3)cc2)c2cc(Cl)ccc2-c2cc(Cl)cnc21 | inhibition at 10 µM [5]: < 50%; logD [6]: 3.5; inhibition at 10 µM [7]: < 50%; AUC(0-t) [8]: 2500 ng·h/mL; bioavailability [9]: 61%; inhibition at 10 µM [10]: < 50%; inhibition at 10 µM [11]: < 50%; clearance [12]: 39 mL/min/kg; inhibition at 10 µM [13]: < 50%; half-life [14]: 13.1 h; inhibition at 10 µM [15]: < 50%; Vd [16]: 29.4 L/kg |
| 870 (≈ 1720 µM) | 24 (≈ 47.5 µM) | 52 |  | Cc1ccc2c(c1)N(c1ccc(NCCNC3CCOCC3)cc1)C(=O)C(C)(C)c1ncc(Cl)cc1-2 |  |
